Common to all, as to assay: DTP human tumour cell line panel, 48 h
Experiment [1] deals with OVCAR-3 ovarian.
Experiment [2] relates to ACHN renal.
The subject of experiment [3] is RXF 393 renal.
In experiment [4] the test system is IGROV1 ovarian.
Experiment [5] concerns NCI-H522 lung.
For experiment [6], the system named is HOP-62 NSCLC.
The subject of experiment [7] is 786-0 renal.
In experiment [8] the test system is SNB-75 CNS.
For experiment [9], the system named is T-47D breast.
The test system of experiment [10] is HCC-2998 colon.

The structures appear in SMILES notation. Where “and” joins values, the source holds several entries; their conditions need not be identical. Identical values can stand only once.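 1) Cells in 96-well plates. 2) Compound, 48 h, 5 concentrations. 3) Linear interpolation between surrounding doses. 4) Unreached endpoint = highest concentration. GI50 is the concentration that inhibits growth by half. TGI: total growth inhibition.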 Bounds are passed on as bounds.

Take `CC12CC=CCC1CCC1C2CCC2(C)C(c3ccc(=O)oc3)CCC12O` (stereo not drawn): the GI50 was 0.0566 µM in experiment [1]; 0.0369 µM in [2]; 0.0174 µM in experiment [3]; 0.0737 µM in experiment [4]; 0.0383 µM in experiment [5]; 0.0459 µM in experiment [6]. For the same compound, the GI50 in experiment [7] was 0.0387 µM; in [8] it was 0.0604 µM; in [9], 0.23 µM; in experiment [10], 0.374 µM. In addition, the TGI in [1] was 0.282 µM; in experiment [2] it was 0.138 µM; in experiment [3], 0.0501 µM; in experiment [4], 1.41 µM; in experiment [5], 0.273 µM; in experiment [6], 0.201 µM. For the same compound, the TGI in [7] worked out at 0.209 µM; in experiment [8], 0.302 µM; in experiment [9], 0.887 µM; in experiment [10], 3.37 µM.

On to `CC(=O)Nc1ccc(/C=C2/NC(=S)N(/C=C3\C(=O)Oc4ccccc4C3=O)C2=O)cc1`, for which the TGI in experiment [1], in [2], in experiment [3], in experiment [4], in experiment [5] and in [6] was greater than 100 µM each time. The TGI in [7] was greater than 100 µM; in [8], 63.1 µM; in experiment [9] it was greater than 100 µM; in [10], greater than 100 µM.

Consider `CC(C)(C)n1cc(-c2ccnc(NCCCNS(=O)(=O)c3ccc(Br)cc3)c2)c(-c2cccc(O)c2)n1`, for which the GI50 is 2.15 µM in experiment [1]; 1.99 µM in experiment [2]; 1.46 µM in [3]; 1.91 µM in [4]; 2.13 µM in experiment [5]; 2.05 µM in [6]. Moreover, the GI50 was 1.66 µM in experiment [7], 1.76 µM in experiment [8], 2.48 µM in [9] and 1.92 µM in experiment [10]. The TGI was 4.15 µM in experiment [1]; 3.89 µM in [2]; 2.87 µM in experiment [3]; 3.93 µM in experiment [4]; 4.55 µM in [5]; 4.2 µM in [6]. Also, the TGI amounted to 3.16 µM in experiment [7], 4.11 µM in [8], 8.12 µM in [9] and 3.48 µM in [10].

With `COc1cc2c3c(c1OC)C1(C=CC(=O)C=C1)CC3NCC2` (stereo not drawn), the TGI in experiment [1], in experiment [2], in experiment [3], in [4], in [5] and in experiment [6] was greater than 100 µM throughout. For the same compound, the concentration for total growth inhibition (TGI) in experiment [7], in experiment [8], in experiment [9] and in experiment [10] was greater than 100 µM each time.

For the compound `CCOC(=O)Cc1csc(N=Nc2c(O)[nH]c3ccccc23)n1`, the TGI is greater than 100 µM in experiment [1]; greater than 100 µM in [2]; greater than 100 µM in experiment [3]; greater than 100 µM in experiment [4]; 93.5 µM in [5]; greater than 100 µM in experiment [6]. The TGI in [7] is greater than 100 µM; in experiment [8] it was 96.6 µM; in experiment [9], greater than 100 µM; in experiment [10] it was greater than 100 µM.

In the case of `COC(=O)c1ccc2c(c1)C(=O)c1c-2n(CCCN)c(=O)c2cc(OC)c(OC)cc12`, the GI50 in [1] was 10.2 µM; in [2] it was 14.8 µM; in experiment [3], 21.6 µM; in [4], 13.6 µM; in experiment [5] it was 17.1 µM; in [6] it was 6.09 µM. Moreover, the GI50 in experiment [7] was 9.72 µM; in [8], 16.5 µM; in [9], 18.9 µM; in experiment [10], 11.9 µM. For the same compound, the TGI in [1] was greater than 56.8 µM; in experiment [2], 29.8 µM; in experiment [3] it was greater than 52 µM; in experiment [4] it was 29.2 µM; in experiment [5], 37.2 µM; in experiment [6], greater than 52.9 µM. The TGI amounted to 28.1 µM in experiment [7], 32.9 µM in experiment [8], 44.9 µM in [9] and 25.9 µM in experiment [10].

Turning to `CC(=O)c1cc(-c2ccccc2N)n(-c2ccc3c(c2)OCO3)c1C`, the GI50 is 0.066 µM in experiment [1]; 0.398 µM in experiment [2]; 0.208 µM in experiment [3]; 0.529 µM in [4]; 0.139 µM in experiment [5]; 0.435 µM in experiment [6]. Also, the GI50 in experiment [7] is 0.388 µM; in [8], 0.255 µM; in experiment [9] it was 0.852 µM; in [10] it was 0.304 µM. Besides, the TGI is 0.537 µM in [1]; greater than 100 µM in experiment [2]; 0.681 µM in [3]; greater than 100 µM in experiment [4]; 5.49 µM in experiment [5]; greater than 100 µM in experiment [6]. In addition, the TGI is greater than 100 µM in experiment [7], greater than 93.9 µM in experiment [8], greater than 100 µM in experiment [9] and 16.3 µM in experiment [10].

For the compound `CNCCNc1nc2ccccc2c2c(=O)c3cc(F)ccc3sc12`, the GI50 in [1] was 1.7 µM; in experiment [2] it was 1.56 µM; in experiment [3] it was 1.6 µM; in experiment [4], 1.75 µM; in [5], 1.66 µM; in experiment [6] it was 1.48 µM. Also, the GI50 in experiment [7] is 1.59 µM; in experiment [8], 1.58 µM; in experiment [9], 1.8 µM; in experiment [10], 1.7 µM. The TGI worked out at 3.25 µM in experiment [1]; 2.91 µM in experiment [2]; 3.1 µM in experiment [3]; 3.34 µM in experiment [4]; 3.42 µM in experiment [5]; 3.21 µM in experiment [6]. Moreover, the TGI was 3.09 µM in experiment [7], 5.6 µM in experiment [8], 4.12 µM in experiment [9] and 3.45 µM in experiment [10].

For `C/C(=N\NC(=S)N1CCN(c2ccccn2)CC1)c1nccs1`, the GI50 in experiment [1] was 0.00821 µM and < 0.0205 µM; in [4], 0.0817 µM; in [5] it was 0.0574 µM and 0.261 µM; in [9] it was 0.855 µM. Besides, the TGI turned out to be 9.96 µM in experiment [2]; 17.4 µM in experiment [3]; 20.2 µM in experiment [4]; 16.3 µM in experiment [5]; 16.8 µM in experiment [6]; 13 µM in experiment [7]. The TGI came out at 19.4 µM in experiment [8], 22.1 µM in experiment [9] and 14.9 µM in experiment [10].

The values are drawn from PubChem BioAssay (NCI).
